Assay [1] concerns T1, JH receptor, methoprene-tolerant protein (Met) / SRC, endogenous in BmN_JF&AR cells.
T1 construct: gene Met1; endogenous receptor of BmN cells; receptor not overexpressed; Met paralogue not specified
In words: kJHRE luciferase reporter assay in stable BmN_JF&AR cells. It is filed as cell-based. To be noted: inhibition of 1 nM JH I response; 25 °C; 20 h; competitive antagonist-like; pathway read-out, direct binding to receptor not demonstrated; read-out: EC50 (the source's name). On the technique in general: Reporter assays use an easily measured gene product as a stand-in for the process of interest.

Assay [2] has the same test system. Described as above. It is filed as cell-based. Conditions: agonist, 25 °C, 20 h, pathway read-out.

For two compounds, IC50 and EC50 results are on record in publication PMC7591571, “Identification of a juvenile-hormone signaling inhibitor via high-throughput screening of a chemical library” (Scientific Reports, 2020).

Broadly, the EC50 is the concentration that produces a half-maximal response.

`CC(C)(C)c1ccc(OCCn2cncn2)c(Cl)c1` [JHSI48, N-[2-(4-tert-butyl-2-chlorophenoxy)ethyl]-1H-1,2,4-triazole]: the IC50 in assay [1] worked out at 320 nM.

`CC/C(=C\CC/C(C)=C/C(=O)OC)CC[C@H]1O[C@@]1(C)CC` [JH I]: the EC50 in assay [2] was determined as 0.37 nM.
